Source: patent publication US10730884B2, “Substituted indole compound derivatives as dengue viral replication inhibitors” (Janssen Pharmaceuticals, Inc., priority 2016, dated 2020)

System: Vero cells
Test: not given
Settings: African green monkey

SMILES	CC50
COc1cc(NC(C(=O)c2c[nH]c3cc4c(cc23)CCO4)c2ccc(Cl)cc2OC)cc(OCCO)c1 (single isomer, unassigned) [Compound 10B]	9500 nM
COc1cc(NC(C(=O)c2c[nH]c3c4c(ccc23)OCC4)c2ccc(Cl)cc2OC)cc(OCCO)c1 (single isomer, unassigned) [Compound 11B]	8200 nM
[2H]C(Nc1cc(OC)cc(OCCO)c1)(C(=O)c1c[nH]c2cc(F)ccc12)c1ccc(Cl)cc1OC (single isomer, unassigned) [Compound 13B-D]	9600 nM
COc1cc(NC(C(=O)c2c[nH]c3cc(F)ccc23)c2ccc(Cl)cc2OC)cc(OCCOP(=O)(O)O)c1 (single isomer, unassigned) [Compound 13B-P]	11000 nM
[2H]C(Nc1cc(OC)cc(OCCO)c1)(C(=O)c1c[nH]c2cc(OC)c(C)cc12)c1ccc(Cl)cc1OC (single isomer, unassigned) [Compound 14B-D]	6000 nM
COc1cc(NC(C(=O)c2c[nH]c3ccc(S(F)(F)(F)(F)F)cc23)c2ccc(Cl)cc2OC)cc(OCCO)c1 (single isomer, unassigned) [Compound 15B]	5800 nM

System: DENV-4 strain H241
Test: Tetravalent RT-qPCR assay, serotype 4
Type: cell-based, Dengue virus
Settings: Dengue virus, DENV4, Vero, 72 h, RT-qPCR serotype 4 H241, Protocol A, Vero cells, day 3
Procedure: (§1) The antiviral activity of the compounds of the invention was tested against DENV-1 strain TC974#666 (NCPV), DENV-2 strain 16681, DENV-3 strain H87 (NCPV) and DENV-4 strain H241 (NCPV) in a RT-qPCR assay. Therefore, Vero cells were infected with either DENV-1, or -2, or -3, or -4 in the presence or absence of test compounds. At day 3 post-infection, the cells were lysed and cell lysates were used to prepare cDNA of both a viral target (the 3′UTR of DENV; Table 2) and a cellular reference gene (β-actin, Table 2). Subsequently, a duplex real time PCR was performed on a Lightcycler480 instrument. The generated Cp value is inversely proportional to the amount of RNA expression of these targets. Inhibition of DENV replication by a test compound result in a shift of Cp's for the 3′UTR gene. On the other hand, if a test compound is toxic to the cells, a similar effect on β-actin expression will be observed. The comparative ΔΔCp method is used to calculate EC50, which is based on the relative gene expression of the target gene (3′UTR) normalized with the cellular housekeeping gene (β-actin). In addition, CC50 values are determined based on the Cp values acquired for the housekeeping gene β-actin.
(§2) The culture medium consisted of minimal essential medium supplemented with 2% of heat-inactivated fetal calf serum, 0.04% gentamycin (50 mg/mL) and 2 mM of L-glutamine. Vero cells, obtained from ECACC, were suspended in culture medium and 75 μL/well was added in 96-well plates (10000 cells/well), which already contain the antiviral compounds. […] In addition, each plate contains wells which are assigned as virus controls (containing cells and virus in the absence of compound) and cell controls (containing cells in the absence of virus and compound). Once the cells were added in the plates, the plates were incubated in a fully humidified incubator (37° C., 5% CO2) until the next day. Dengue viruses serotype-1, 2, 3 and 4 were diluted in order to obtain a Cp of ˜22-24 in the assay. Therefore, 25 μL of virus suspension was added to all the wells containing test compound and to the wells assigned as virus control. In parallel, 25 μL of culture medium was added to the cell controls. Next, the plates were incubated for 3 days in a fully humidified incubator (37° C., 5% CO2). After 3 days, the supernatant was removed from the wells and the cells were washed twice with ice-cold PBS (˜100 μL). The cell pellets within the 96-well plates were stored at −80° C. for at least 1 day. Next, RNA was extracted using the Cells-to-CT™ lysis kit, according to the manufacturer's guideline (Life Technologies). The cell lysates can be stored at −80° C. or immediately used in the reverse transcription step.
(§3) In preparation of the reverse transcription step, mix A (table 3A) was prepared and 7.57 μL/well was dispensed in a 96-well plate. After addition of 5 μL of the cell lysates, a five minute denaturation step at 75° C. was performed (table 3B). Afterwards, 7.43 μL of mix B was added (table 3C) and the reverse transcription step was initiated (table 3D) to generate cDNA.
(§4) Finally, a RT-qPCR mix was prepared, mix C (table 4A), and 22.02 μL/well was dispensed in 96-well LightCycler qPCR plates to which 3 μL of cDNA was added and the qPCR was performed according to the conditions in table 4B on a LightCycler 480.
(§5) Using the LightCycler software and an in-house LIMS system, dose response curves for each compound were calculated and the half maximal effective concentration (EC50) and the half maximal cytotoxic concentration (CC50) were determined (Tables 5-8).

SMILES	EC50
COc1cc(NC(C(=O)c2c[nH]c3cc4c(cc23)CCO4)c2ccc(Cl)cc2OC)cc(OCCO)c1 (single isomer, unassigned) [Compound 10B]	110 nM
[2H]C(Nc1cc(OC)cc(OCCO)c1)(C(=O)c1c[nH]c2cc(F)ccc12)c1ccc(Cl)cc1OC (single isomer, unassigned) [Compound 13A-D]	210 nM

Same assay, conditions: RT-qPCR serotype 4 H241

SMILES	SI
COc1cc(NC(C(=O)c2c[nH]c3cc4c(cc23)CCO4)c2ccc(Cl)cc2OC)cc(OCCO)c1 (single isomer, unassigned) [Compound 10B]	>29
[2H]C(Nc1cc(OC)cc(OCCO)c1)(C(=O)c1c[nH]c2cc(F)ccc12)c1ccc(Cl)cc1OC (single isomer, unassigned) [Compound 13A-D]	24

System: not listed separately
Test: in vitro
Settings: African green monkey

SMILES	CC50
[2H]C(Nc1cc(OC)cc(OCCO)c1)(C(=O)c1c[nH]c2cc(F)ccc12)c1ccc(Cl)cc1OC (single isomer, unassigned) [Compound 13A-D]	11000 nM

System: DENV-2 strain 16681
Test: Tetravalent RT-qPCR assay, serotype 2
Type: cell-based, Dengue virus
Settings: Dengue virus, DENV2, Vero, 72 h, RT-qPCR serotype 2 16681, Protocol A, Vero cells, day 3
Procedure: as §1, §2, §3, §4, §5

SMILES	EC50
COc1cc(NC(C(=O)c2c[nH]c3cc4c(cc23)CCO4)c2ccc(Cl)cc2OC)cc(OCCO)c1 (single isomer, unassigned) [Compound 10B]	0.4 nM
[2H]C(Nc1cc(OC)cc(OCCO)c1)(C(=O)c1c[nH]c2cc(F)ccc12)c1ccc(Cl)cc1OC (single isomer, unassigned) [Compound 13A-D]	0.61 nM

Same assay, conditions: RT-qPCR serotype 2 16681

SMILES	SI
COc1cc(NC(C(=O)c2c[nH]c3cc4c(cc23)CCO4)c2ccc(Cl)cc2OC)cc(OCCO)c1 (single isomer, unassigned) [Compound 10B]	23600
[2H]C(Nc1cc(OC)cc(OCCO)c1)(C(=O)c1c[nH]c2cc(F)ccc12)c1ccc(Cl)cc1OC (single isomer, unassigned) [Compound 13A-D]	>8520

System: DENV-3 strain H87
Test: Tetravalent RT-qPCR assay, serotype 3
Type: cell-based, Dengue virus
Settings: Dengue virus, DENV3, Vero, 72 h, RT-qPCR serotype 3 H87, Protocol A, Vero cells, day 3; read-out: EC50
Procedure: as §1, §2, §3, §4, §5

SMILES	EC50
COc1cc(NC(C(=O)c2c[nH]c3cc4c(cc23)CCO4)c2ccc(Cl)cc2OC)cc(OCCO)c1 (single isomer, unassigned) [Compound 10B]	22 nM
[2H]C(Nc1cc(OC)cc(OCCO)c1)(C(=O)c1c[nH]c2cc(F)ccc12)c1ccc(Cl)cc1OC (single isomer, unassigned) [Compound 13A-D]	36 nM

Same assay, conditions: RT-qPCR serotype 3 H87

SMILES	SI
COc1cc(NC(C(=O)c2c[nH]c3cc4c(cc23)CCO4)c2ccc(Cl)cc2OC)cc(OCCO)c1 (single isomer, unassigned) [Compound 10B]	316
[2H]C(Nc1cc(OC)cc(OCCO)c1)(C(=O)c1c[nH]c2cc(F)ccc12)c1ccc(Cl)cc1OC (single isomer, unassigned) [Compound 13A-D]	>96

System: DENV-2 16681 strain
Test: DENV-2 antiviral assay (eGFP-labeled virus, Vero cells)
Type: cell-based, Dengue virus
Settings: DENV-2 16681 eGFP, Vero cells, MOI 0.5, 3 days
Procedure: The antiviral activity of all the compounds of the invention was tested against the DENV-2 16681 strain which was labeled with enhanced green fluorescent protein (eGPF). The culture medium consists of minimal essential medium supplemented with 2% of heat-inactivated fetal calf serum, 0.04% gentamycin (50 mg/mL) and 2 mM of L-glutamine. Vero cells, obtained from ECACC, were suspended in culture medium and 25 μL was added to 384-well plates (2500 cells/well), which already contain the antiviral compounds. Typically, these plates contain a 5-fold serial dilution of 9 dilution steps of the test compound at 200 times the final concentration in 100% DMSO (200 nL). […] Finally, each plate contains wells which are assigned as virus controls (containing cells and virus in the absence of compound), cell controls (containing cells in the absence of virus and compound) and medium controls (containing medium in the absence of cells, virus and compounds). To the wells assigned as medium control, 25 μL of culture medium was added instead of Vero cells. Once the cells were added to the plates, the plates were incubated for 30 minutes at room temperature to allow the cells to distribute evenly within the wells. Next, the plates were incubated in a fully humidified incubator (37° C., 5% CO2) until the next day. Then, DENV-2 strain 16681, labeled with eGFP, was added at a multiplicity of infection (MOI) of 0.5. Therefore, 15 μL of virus suspension was added to all the wells containing test compound and to the wells assigned as virus control. In parallel, 15 μL of culture medium was added to the medium and cell controls. Next, the plates were incubated for 3 days in a fully humidified incubator (37° C., 5% CO2). At the day of the read out, the eGFP fluorescence was measured using an automated fluorescence microscope at 488 nm (blue laser). Using an in-house LIMS system, inhibition dose response curves for each compound were calculated and the half maximal effective concentration (EC50) was determined. Therefore, the percent inhibition (I) for every test concentration is calculated using the following formula: I=100*([…])/(SVC−SCC); ST, SCC and SVC are the amount of eGFP signal in the test compound, cell control and virus control wells, respectively. The EC50 represents the concentration of a compound at which the virus replication is inhibited with 50%, as measured by a 50% reduction of the eGFP fluorescent intensity compared to the virus control. The EC50 is calculated using linear interpolation (Table 1).

SMILES	EC50
COc1cc(NC(C(=O)c2c[nH]c3cc4c(cc23)CCO4)c2ccc(Cl)cc2OC)cc(OCCO)c1 (single isomer, unassigned) [Compound 10B]	0.32 nM
COc1cc(NC(C(=O)c2c[nH]c3c4c(ccc23)OCC4)c2ccc(Cl)cc2OC)cc(OCCO)c1 (single isomer, unassigned) [Compound 11B]	170 nM
[2H]C(Nc1cc(OC)cc(OCCO)c1)(C(=O)c1c[nH]c2cc(F)ccc12)c1ccc(Cl)cc1OC (single isomer, unassigned) [Compound 13A-D]	0.46 nM
[2H]C(Nc1cc(OC)cc(OCCO)c1)(C(=O)c1c[nH]c2cc(F)ccc12)c1ccc(Cl)cc1OC (single isomer, unassigned) [Compound 13B-D]	170 nM
COc1cc(NC(C(=O)c2c[nH]c3cc(F)ccc23)c2ccc(Cl)cc2OC)cc(OCCOP(=O)(O)O)c1 (single isomer, unassigned) [Compound 13B-P]	13 nM
[2H]C(Nc1cc(OC)cc(OCCO)c1)(C(=O)c1c[nH]c2cc(OC)c(C)cc12)c1ccc(Cl)cc1OC (single isomer, unassigned) [Compound 14B-D]	110 nM
COc1cc(NC(C(=O)c2c[nH]c3ccc(S(F)(F)(F)(F)F)cc23)c2ccc(Cl)cc2OC)cc(OCCO)c1 (single isomer, unassigned) [Compound 15B]	13 nM

Same assay, conditions: SI=CC50/EC50, DENV-2 antiviral assay

SMILES	SI
COc1cc(NC(C(=O)c2c[nH]c3cc4c(cc23)CCO4)c2ccc(Cl)cc2OC)cc(OCCO)c1 (single isomer, unassigned) [Compound 10B]	19700
COc1cc(NC(C(=O)c2c[nH]c3c4c(ccc23)OCC4)c2ccc(Cl)cc2OC)cc(OCCO)c1 (single isomer, unassigned) [Compound 11B]	49
[2H]C(Nc1cc(OC)cc(OCCO)c1)(C(=O)c1c[nH]c2cc(F)ccc12)c1ccc(Cl)cc1OC (single isomer, unassigned) [Compound 13A-D]	24300
[2H]C(Nc1cc(OC)cc(OCCO)c1)(C(=O)c1c[nH]c2cc(F)ccc12)c1ccc(Cl)cc1OC (single isomer, unassigned) [Compound 13B-D]	54
COc1cc(NC(C(=O)c2c[nH]c3cc(F)ccc23)c2ccc(Cl)cc2OC)cc(OCCOP(=O)(O)O)c1 (single isomer, unassigned) [Compound 13B-P]	822
[2H]C(Nc1cc(OC)cc(OCCO)c1)(C(=O)c1c[nH]c2cc(OC)c(C)cc12)c1ccc(Cl)cc1OC (single isomer, unassigned) [Compound 14B-D]	52
COc1cc(NC(C(=O)c2c[nH]c3ccc(S(F)(F)(F)(F)F)cc23)c2ccc(Cl)cc2OC)cc(OCCO)c1 (single isomer, unassigned) [Compound 15B]	460

System: DENV-1 strain TC974#666
Test: Tetravalent RT-qPCR assay, serotype 1
Type: cell-based, Dengue virus
Settings: Dengue virus, DENV1, Vero, 72 h, RT-qPCR serotype 1 TC974#666, Protocol A, Vero cells, day 3; read-out: EC50
Procedure: as §1, §2, §3, §4, §5

SMILES	EC50
COc1cc(NC(C(=O)c2c[nH]c3cc4c(cc23)CCO4)c2ccc(Cl)cc2OC)cc(OCCO)c1 (single isomer, unassigned) [Compound 10B]	3.2 nM
[2H]C(Nc1cc(OC)cc(OCCO)c1)(C(=O)c1c[nH]c2cc(F)ccc12)c1ccc(Cl)cc1OC (single isomer, unassigned) [Compound 13A-D]	5.2 nM

Same assay, conditions: RT-qPCR serotype 1 TC974#666

SMILES	SI
COc1cc(NC(C(=O)c2c[nH]c3cc4c(cc23)CCO4)c2ccc(Cl)cc2OC)cc(OCCO)c1 (single isomer, unassigned) [Compound 10B]	3340
[2H]C(Nc1cc(OC)cc(OCCO)c1)(C(=O)c1c[nH]c2cc(F)ccc12)c1ccc(Cl)cc1OC (single isomer, unassigned) [Compound 13A-D]	3070
